Broadly, the Ki is a measure of affinity in units of concentration, obtained from inhibition or displacement.

Drawing on ChEMBL document CHEMBL5046218, “Novel Dual-Target μ-Opioid Receptor and Dopamine D3 Receptor Ligands as Potential Nonaddictive Pharmacotherapeutics for Pain Management” (J Med Chem, 2021), this text covers Ki for 37 compounds.

What all share (parameters): species or system Membrane
For assay [1], the target named is T1, D(2) dopamine receptor (Homo sapiens, UniProt P14416). As to the kind of experiment: Displacement of [3H]-N-methylspiperone from human dopamine D2 receptor expressed in HEK293 cell membranes incubated for 60 mins by microbeta scintillation counting analysis.
The target in the next assay is T2, D(4) dopamine receptor (Homo sapiens, UniProt P21917).
T2 sequence (P21917 whole entry): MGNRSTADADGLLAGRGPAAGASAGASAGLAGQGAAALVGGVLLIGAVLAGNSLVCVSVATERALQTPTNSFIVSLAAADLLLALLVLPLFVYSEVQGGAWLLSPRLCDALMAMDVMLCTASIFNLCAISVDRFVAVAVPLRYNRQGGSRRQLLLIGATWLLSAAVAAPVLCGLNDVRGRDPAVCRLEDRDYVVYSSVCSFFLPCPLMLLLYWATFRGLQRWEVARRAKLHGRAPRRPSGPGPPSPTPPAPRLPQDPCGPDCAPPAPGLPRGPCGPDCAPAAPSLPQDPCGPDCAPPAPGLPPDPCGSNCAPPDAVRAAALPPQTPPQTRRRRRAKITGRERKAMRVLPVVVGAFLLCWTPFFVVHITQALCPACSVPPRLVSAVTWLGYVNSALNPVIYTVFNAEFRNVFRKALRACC
The assay can be described thus: Displacement of [3H]-N-methylspiperone from human dopamine D4 receptor expressed in HEK293 cell membranes incubated for 60 mins by microbeta scintillation counting analysis. In general terms: In a radioligand displacement assay an active substance lowers the binding of a labelled ligand.

The target in assay [2] is T1, D(2) dopamine receptor. The assay can be described thus: Displacement of [3H]-(R)-(+)7-OH-DPAT from human dopamine D2 receptor expressed in HEK293 cell membranes incubated for 90 mins by microbeta scintillation counting analysis.
The target of assay [3] is T3, D(3) dopamine receptor (Homo sapiens, UniProt P35462). The assay can be described thus: Displacement of [3H]-N-methylspiperone from human dopamine D3 receptor expressed in HEK293 cell membranes incubated for 60 mins by microbeta scintillation counting analysis.
The target of assay [4] is T3, D(3) dopamine receptor. The assay can be described thus: Displacement of [3H]-(R)-(+)7-OH-DPAT from human dopamine D3 receptor expressed in HEK293 cell membranes incubated for 90 mins by microbeta scintillation counting analysis.

Where only a bound is given, the exact number is not on record here.

T1 sequence (P14416 whole entry): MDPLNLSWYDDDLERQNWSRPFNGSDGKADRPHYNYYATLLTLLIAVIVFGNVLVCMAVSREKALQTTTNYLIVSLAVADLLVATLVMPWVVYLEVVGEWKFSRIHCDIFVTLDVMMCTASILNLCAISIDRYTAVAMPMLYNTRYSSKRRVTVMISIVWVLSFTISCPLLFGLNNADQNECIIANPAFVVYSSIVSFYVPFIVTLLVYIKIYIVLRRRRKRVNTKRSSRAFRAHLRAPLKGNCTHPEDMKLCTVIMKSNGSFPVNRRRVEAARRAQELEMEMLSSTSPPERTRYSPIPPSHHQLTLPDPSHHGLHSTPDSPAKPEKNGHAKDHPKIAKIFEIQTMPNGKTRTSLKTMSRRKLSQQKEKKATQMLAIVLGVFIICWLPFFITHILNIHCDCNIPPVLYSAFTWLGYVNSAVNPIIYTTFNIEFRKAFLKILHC
T3 sequence (P35462 whole entry): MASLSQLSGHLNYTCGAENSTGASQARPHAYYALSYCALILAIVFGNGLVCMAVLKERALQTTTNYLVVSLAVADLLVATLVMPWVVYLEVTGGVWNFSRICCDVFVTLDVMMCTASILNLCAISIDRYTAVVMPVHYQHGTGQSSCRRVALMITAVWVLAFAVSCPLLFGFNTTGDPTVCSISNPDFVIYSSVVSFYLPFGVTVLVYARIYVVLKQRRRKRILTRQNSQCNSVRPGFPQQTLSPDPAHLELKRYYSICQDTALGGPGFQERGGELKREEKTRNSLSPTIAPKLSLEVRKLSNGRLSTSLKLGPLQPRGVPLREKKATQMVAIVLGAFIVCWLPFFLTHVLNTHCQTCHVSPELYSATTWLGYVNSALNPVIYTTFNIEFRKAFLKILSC

As to `CCOC(=O)/C=C1\[C@@H]2CCC[C@@]1(c1cccc(O)c1)CCN2CCc1ccccc1`, the Ki came out at 636 nM on D(2) dopamine receptor [1], 5470 nM on D(4) dopamine receptor and 186 nM at D(2) dopamine receptor [2].

For `Oc1cccc([C@@]23CCC[C@@H]([C@H]2O)N(C/C=C/c2ccccc2)CC3)c1`, the inhibition constant (Ki) on D(2) dopamine receptor [1] was determined as 7380 nM; at D(3) dopamine receptor [3], 15700 nM; on D(4) dopamine receptor, 36900 nM; on D(2) dopamine receptor [2] it was 2790 nM; at D(3) dopamine receptor [4], 20000 nM.

`O=C(NCCCCN1CC[C@]2(c3cccc(O)c3)CCC[C@H]1[C@@H]2O)c1cc2ccccc2[nH]1`: the Ki on D(2) dopamine receptor [1] was 4530 nM; on D(3) dopamine receptor [3] it was 5630 nM; on D(4) dopamine receptor, 5630 nM.

For `CCC(=O)C(CCN(C)C)(c1ccccc1)c1ccccc1` [NORMETHADONE], the Ki on D(2) dopamine receptor [1] was 34900 nM; at D(3) dopamine receptor [3], 4270 nM; at D(4) dopamine receptor it was over 100000 nM.

As to `CCc1cccc(N2CCN(CCC(c3cccc(OC)c3)c3cccc(OC)c3)CC2)c1Cl`, the values for the Ki on D(2) dopamine receptor [1], on D(3) dopamine receptor [3] and at D(4) dopamine receptor were 170 nM, 93.8 nM and 63.4 nM, respectively.

In the case of `CN(C)C(=O)C(CCN1CCN(c2cccc(Cl)c2Cl)CC1)(c1ccccc1)c1ccccc1`, the values for the Ki at D(2) dopamine receptor [1], on D(4) dopamine receptor and at D(2) dopamine receptor [2] were 74.7 nM, 102 nM and 31.3 nM, respectively.

Consider `CCc1cccc(N2CCN(CCC(C(=O)N(C)C)(c3ccccc3)c3ccccc3)CC2)c1Cl`, for which the Ki was 43 nM on D(2) dopamine receptor [1]; 69 nM on D(3) dopamine receptor [3]; 64.8 nM at D(4) dopamine receptor; 20.3 nM at D(2) dopamine receptor [2]; 197 nM at D(3) dopamine receptor [4].

For `CCC(=O)C(CC(C)N(C)C)(c1ccccc1)c1ccccc1` (stereo unspecified) [METHADONE], the Ki on D(2) dopamine receptor [1] is over 100000 nM; on D(3) dopamine receptor [3], 2110 nM; at D(4) dopamine receptor it was 26200 nM.

For `CN(C)CCC(C#N)(c1ccccc1)c1ccccc1`, the results for the Ki at D(2) dopamine receptor [1], at D(3) dopamine receptor [3] and on D(4) dopamine receptor were 17900 nM, 16100 nM and 23200 nM, respectively.

With `N#CC(CCNCCCCN1CCN(c2cccc(Cl)c2Cl)CC1)(c1ccccc1)c1ccccc1`, the Ki came out at 149 nM at D(2) dopamine receptor [1], 25.9 nM on D(4) dopamine receptor and 36.3 nM at D(2) dopamine receptor [2].

Take `CN(C)C(=O)C(CCNCCCCN1CCc2ccc(C#N)cc2C1)(c1ccccc1)c1ccccc1`: the Ki at D(2) dopamine receptor [1] stood at 1240 nM; at D(3) dopamine receptor [3], 1060 nM; at D(4) dopamine receptor it was 58900 nM.

As to `Oc1cccc([C@]23CCC[C@H](NCC2)[C@@H]3O)c1`, the Ki on D(2) dopamine receptor [1], at D(3) dopamine receptor [3], at D(4) dopamine receptor, on D(2) dopamine receptor [2] and on D(3) dopamine receptor [4] was over 100000 nM throughout.

In the case of `CN(C)CCC(C(=O)NCCCCN1CCN(c2cccc(Cl)c2Cl)CC1)(c1ccccc1)c1ccccc1`, the Ki is 42.7 nM on D(2) dopamine receptor [1], 11.8 nM on D(3) dopamine receptor [3] and 466 nM at D(4) dopamine receptor.

As to `N#CC(CCN1CCN(c2cccc(Cl)c2Cl)CC1)(c1ccccc1)c1ccccc1`, the figures for the Ki at D(2) dopamine receptor [1], at D(3) dopamine receptor [3] and at D(4) dopamine receptor were 2630 nM, 2240 nM and 8490 nM, respectively.

For `N#CC(CCNCCc1ccccc1)(c1ccccc1)c1ccccc1`, the inhibitory constant (Ki) at D(2) dopamine receptor [1] is 17600 nM; on D(3) dopamine receptor [3] it was 8960 nM; on D(4) dopamine receptor, 13900 nM.

For `CCOC(=O)/C=C1\[C@@H]2CCC[C@@]1(c1cccc(O)c1)CCN2`, the Ki at D(2) dopamine receptor [1], on D(3) dopamine receptor [3] and on D(4) dopamine receptor was over 100000 nM throughout.

As for `CN(C)C(=O)C(CCN1CCc2ccc(C#N)cc2C1)(c1ccccc1)c1ccccc1`, the Ki on D(2) dopamine receptor [1] was 2270 nM; on D(3) dopamine receptor [3], 1630 nM; at D(4) dopamine receptor it was 18000 nM.

With `N#CC(CCNCCCCC(=O)N1CCN(c2cccc(Cl)c2Cl)CC1)(c1ccccc1)c1ccccc1`, the Ki at D(2) dopamine receptor [1] came to 1940 nM; at D(3) dopamine receptor [3], 1360 nM; on D(4) dopamine receptor, 3930 nM.

For the compound `CCc1cc(Cl)c(OC)c(C(=O)NC[C@@H]2C[C@@H](OCCCCNCCC(C(=O)N(C)C)(c3ccccc3)c3ccccc3)CN2)c1O`, the Ki on D(2) dopamine receptor [1] stood at 9.41 nM; on D(3) dopamine receptor [3] it was 2.21 nM; at D(4) dopamine receptor it was 674 nM.

For `CCOC(=O)/C=C1\[C@@H]2CCC[C@@]1(c1cccc(O)c1)CCN2CC1CC1CCNC(=O)c1cc2ccccc2[nH]1` (stereo partly specified), the inhibitory constant (Ki) is 3890 nM at D(2) dopamine receptor [1], 4350 nM at D(3) dopamine receptor [3] and 23400 nM on D(4) dopamine receptor.

In turn, `CN(C)C(=O)C(CCNCCCCN1CCN(c2cccc(Cl)c2Cl)CC1)(c1ccccc1)c1ccccc1` came in with an inhibition constant (Ki) at D(4) dopamine receptor of 378 nM.

For `CN(C)C(=O)C(CCNCCc1ccccc1)(c1ccccc1)c1ccccc1`, the Ki stood at 3650 nM on D(2) dopamine receptor [1], 2080 nM on D(3) dopamine receptor [3] and 12600 nM at D(4) dopamine receptor.

As for `CN1CCC(c2ccccc2)(c2ccccc2)C1`, the Ki on D(2) dopamine receptor [1] is over 100000 nM; on D(3) dopamine receptor [3] it was over 100000 nM; on D(4) dopamine receptor, 35400 nM.

Regarding `Oc1cccc(C(CCNCCCCN2CCN(c3ccccc3)CC2)c2cccc(O)c2)c1`, the Ki on D(2) dopamine receptor [1] is 987 nM; on D(3) dopamine receptor [3] it was 249 nM; at D(4) dopamine receptor it was 422 nM.

On to `CCc1cc(Cl)c(OC)c(C(=O)NC[C@@H]2CCCN2CCC(C#N)(c2ccccc2)c2ccccc2)c1O`, for which the Ki at D(2) dopamine receptor [1] is 12400 nM; on D(3) dopamine receptor [3] it was 1550 nM; on D(4) dopamine receptor, over 100000 nM.

In the case of `CCC(=O)N1CCC(c2ccccc2)(c2ccccc2)C1`, the Ki at D(2) dopamine receptor [1], at D(3) dopamine receptor [3] and at D(4) dopamine receptor was over 100000 nM throughout.

With `COc1cccc(C(=CCNCCCCN2CCN(c3cccc(Cl)c3Cl)CC2)c2cccc(OC)c2)c1`, the Ki was 5240 nM at D(2) dopamine receptor [1], 342 nM on D(3) dopamine receptor [3] and 26100 nM at D(4) dopamine receptor.

For `CCOC(=O)/C=C1\[C@@H]2CCC[C@@]1(c1cccc(O)c1)CCN2CCN1CCN(c2cccc(Cl)c2Cl)CC1`, the results for the Ki at D(2) dopamine receptor [1] and at D(4) dopamine receptor were 51.6 nM and 1600 nM, respectively.

For `CCc1cc(Cl)c(OC)c(C(=O)NC[C@@H]2CCCN2CCCCNCCC(C(=O)N(C)C)(c2ccccc2)c2ccccc2)c1O`, the Ki worked out at 1730 nM at D(2) dopamine receptor [1] and 6610 nM at D(4) dopamine receptor.

Consider `CCc1cccc(N2CCN(CCC(c3cccc(O)c3)c3cccc(O)c3)CC2)c1Cl`, for which the Ki was found to be 187 nM at D(2) dopamine receptor [1], 200 nM on D(3) dopamine receptor [3] and 19.2 nM at D(4) dopamine receptor.

For the compound `CN(C)C(=O)C(CCN1CCC(O)(c2ccc(Cl)cc2)CC1)(c1ccccc1)c1ccccc1` [LOPERAMIDE], the Ki is 5790 nM on D(2) dopamine receptor [1], […] on D(3) dopamine receptor [3] and 1850 nM at D(4) dopamine receptor.

In the case of `CCc1cc(Cl)c(OC)c(C(=O)NCC2CCCN2CC(=O)N2CCC(c3ccccc3)(c3ccccc3)C2)c1O` (stereo unspecified), the results for the Ki on D(2) dopamine receptor [1], at D(3) dopamine receptor [3] and at D(4) dopamine receptor were 2380 nM, 288 nM and 31000 nM, respectively.

On to `CCc1cc(Cl)c(OC)c(C(=O)NCC2CCCN2CCCCNCCC(C(=O)N(C)C)(c2ccccc2)c2ccccc2)c1O` (stereo unspecified), for which the Ki came to 502 nM at D(2) dopamine receptor [1], 3420 nM at D(4) dopamine receptor and 93.7 nM on D(2) dopamine receptor [2].

Take `N#CC(CCNCCC(O)CN1CCN(c2cccc(Cl)c2Cl)CC1)(c1ccccc1)c1ccccc1` (stereo unspecified): the Ki was 903 nM on D(2) dopamine receptor [1], 460 nM at D(3) dopamine receptor [3] and 426 nM at D(4) dopamine receptor.

As for `CN(C)CCC(C(=O)N(C)C)(c1ccccc1)c1ccccc1`, the Ki on D(2) dopamine receptor [1] was over 100000 nM; on D(3) dopamine receptor [3] it was 36900 nM; at D(4) dopamine receptor, 20200 nM.

Regarding `O=C(NCCCCN1CC[C@]2(c3cccc(O)c3)CCC[C@H]1[C@H]2O)c1cc2ccccc2[nH]1`, the Ki on D(2) dopamine receptor [1] came out at 1310 nM; on D(4) dopamine receptor, 3810 nM.

On to `CCc1cccc(N2CCN(CCC(c3cccc(O)c3)c3cccc(OC)c3)CC2)c1Cl` (stereo unspecified), for which the Ki came to 190 nM at D(2) dopamine receptor [1] and 38.5 nM on D(4) dopamine receptor.
